From US5714576A, “Linear analogs of alpha-msh fragments” (Competitive Technologies, Inc., priority 1997, dated 1998)
Read-outs that look alike come from different tables or passages of the source. Positions of bridges follow the written chain, without caps; N, C: chain ends. Non-standard residues stand in square brackets, D forms with d. Residues, ends and D or L forms follow the SMILES beside them. Nle = CCCC[C@H](N)C(=O)O; Dab = NCC[C@H](N)C(=O)O

Experiments:
Frog (Rana pipiens) Skin = type: cell-based
Protocol: (§1) The biological potencies of alpha-MSH, the linear and cyclic analogues were determined by their ability to stimulate melanosome dispersion in vitro in the frog and lizard bioassays. This in vitro assay provides clear cut dose response curves (between 2.5×10^-11 and 4×10^-10 M) and can detect minimal concentration of alpha-MSH of about 10^-11 M. The assay is based upon the centrifugal dispersion of melanosomes (melanin granules) within the dendritic processes of integumental dermal melanophores leading to darkening of the skin. All the test solutions were prepared via serial dilutions from a stock solution (10^-4 M). The frogs (Rana pipiens) used in these evaluations were obtained from Kons Scientific, Germantown, Wis., and the lizards (Anolis carolinensis) were from the Snake Farm, La Place, La.

[1] = test system: Lizard (Anolis carolinensis) Skin; type: cell-based; conditions: for Residual Activity Lizard (prolonged action): linear analogues
Protocol: as §1

[2] = cyclic analogues, alpha-MSH = 1.0

Structure (SMILES)	Biological Potency Frog (Frog (Rana pipiens) Skin)	Residual Activity Frog (prolonged action) (Frog (Rana pipiens) Skin; linear analogues)	Biological Potency Lizard [1]	Residual Activity Lizard (prolonged action) [1]	Residual Activity Frog (prolonged action) (Frog (Rana pipiens) Skin; cyclic analogues)	Biological Potency Frog (Frog (Rana pipiens) Skin; [2])
CCCC[C@H](NC(=O)[C@H](CO)NC(=O)[C@H](Cc1ccc(O)cc1)NC(=O)[C@H](CO)NC(C)=O)C(=O)N[C@@H](CCC(=O)O)C(=O)N[C@@H](Cc1c[nH]cn1)C(=O)N[C@H](Cc1ccccc1)C(=O)N[C@@H](CCCNC(=N)N)C(=O)N[C@@H](Cc1c[nH]c2ccccc12)C(=O)N[C@@H](CCCCN)C(=O)NCC(=O)N1CCC[C@H]1C(=O)N[C@H](C(N)=O)C(C)C [Analogue 1] (Ac-SYS[Nle]EH[dF]RWKGPV-NH2)	6.0	P(+)	8.0	P(-)	–	–
CCCC[C@H](NC(=O)[C@H](CO)NC(=O)[C@H](Cc1ccc(O)cc1)NC(=O)[C@H](CO)NC(C)=O)C(=O)N[C@@H](CC(=O)O)C(=O)N[C@@H](Cc1c[nH]cn1)C(=O)N[C@H](Cc1ccccc1)C(=O)N[C@@H](CCCNC(=N)N)C(=O)N[C@@H](Cc1c[nH]c2ccccc12)C(=O)N[C@@H](CCCCN)C(=O)NCC(=O)N1CCC[C@H]1C(=O)N[C@H](C(N)=O)C(C)C [Analogue 2] (Ac-SYS[Nle]DH[dF]RWKGPV-NH2)	9.0	P(+)	8.0	P(-)	–	–
CCCC[C@H](NC(C)=O)C(=O)N[C@@H](CCC(=O)O)C(=O)N[C@@H](Cc1c[nH]cn1)C(=O)N[C@H](Cc1ccccc1)C(=O)N[C@@H](CCCNC(=N)N)C(=O)N[C@@H](Cc1c[nH]c2ccccc12)C(=O)N[C@@H](CCCCN)C(=O)NCC(=O)N1CCC[C@H]1C(=O)N[C@H](C(N)=O)C(C)C [Analogue 3] (Ac-[Nle]EH[dF]RWKGPV-NH2)	0.8	P(+)	8.0	P(+)	–	–
CCCC[C@H](NC(C)=O)C(=O)N[C@@H](CC(=O)O)C(=O)N[C@@H](Cc1c[nH]cn1)C(=O)N[C@H](Cc1ccccc1)C(=O)N[C@@H](CCCNC(=N)N)C(=O)N[C@@H](Cc1c[nH]c2ccccc12)C(=O)N[C@@H](CCCCN)C(=O)NCC(=O)N1CCC[C@H]1C(=O)N[C@H](C(N)=O)C(C)C [Analogue 4] (Ac-[Nle]DH[dF]RWKGPV-NH2)	1.0	P(+)	10.0	P(+)	–	–
CCCC[C@H](NC(C)=O)C(=O)N[C@@H](CC(=O)O)C(=O)N[C@@H](Cc1c[nH]cn1)C(=O)N[C@H](Cc1ccccc1)C(=O)N[C@@H](CCCNC(=N)N)C(=O)N[C@@H](Cc1c[nH]c2ccccc12)C(=O)NCC(N)=O [Analogue 5]	0.1	P(-)	8.0	P(-)	–	–
CCCC[C@H](NC(C)=O)C(=O)N[C@@H](CCC(=O)O)C(=O)N[C@@H](Cc1c[nH]cn1)C(=O)N[C@H](Cc1ccccc1)C(=O)N[C@@H](CCCNC(=N)N)C(=O)N[C@@H](Cc1c[nH]c2ccccc12)C(=O)N[C@@H](CCCCN)C(N)=O [Analogue 6]	0.2	P(-)	8.0	P(-)	–	–
CCCC[C@H](NC(C)=O)C(=O)N[C@@H](CC(=O)O)C(=O)N[C@@H](Cc1c[nH]cn1)C(=O)N[C@H](Cc1ccccc1)C(=O)N[C@@H](CCCNC(=N)N)C(=O)N[C@@H](Cc1c[nH]c2ccccc12)C(=O)N[C@@H](CCCCN)C(N)=O [Analogue 7]	–	–	8.0	P(-)	–	–
CCCC[C@H](NC(C)=O)C(=O)N[C@@H](CCC(=O)O)C(=O)N[C@@H](Cc1c[nH]cn1)C(=O)N[C@H](Cc1ccccc1)C(=O)N[C@@H](CCCNC(=N)N)C(=O)N[C@@H](Cc1c[nH]c2ccccc12)C(=O)N[C@@H](CCCN)C(N)=O [Analogue 8]	0.6	P(-)	8.0	P(-)	–	–
CCCC[C@H](NC(C)=O)C(=O)N[C@@H](CC(=O)O)C(=O)N[C@@H](Cc1c[nH]cn1)C(=O)N[C@H](Cc1ccccc1)C(=O)N[C@@H](CCCNC(=N)N)C(=O)N[C@@H](Cc1c[nH]c2ccccc12)C(=O)N[C@@H](CCCN)C(N)=O [Analogue 9]	0.9	–	10.0	P(-)	–	–
CCCC[C@H](NC(C)=O)C(=O)N[C@@H](CCC(=O)O)C(=O)N[C@@H](Cc1c[nH]cn1)C(=O)N[C@H](Cc1ccccc1)C(=O)N[C@@H](CCCNC(=N)N)C(=O)N[C@@H](Cc1c[nH]c2ccccc12)C(=O)N[C@@H](CCN)C(N)=O [Analogue 10] (Ac-[Nle]EH[dF]RW[Dab]-NH2)	0.9	P(±)	10.0	P(±)	–	–
CCCC[C@H](NC(C)=O)C(=O)N[C@@H](CC(=O)O)C(=O)N[C@@H](Cc1c[nH]cn1)C(=O)N[C@H](Cc1ccccc1)C(=O)N[C@@H](CCCNC(=N)N)C(=O)N[C@@H](Cc1c[nH]c2ccccc12)C(=O)N[C@@H](CCN)C(N)=O [Analogue 11]	0.9	P(-)	50.0	P(-)	–	–
CCCC[C@H](NC(C)=O)C(=O)N[C@@H](CC(=O)O)C(=O)N[C@@H](Cc1c[nH]cn1)C(=O)N[C@H](Cc1ccccc1)C(=O)N[C@@H](CCCNC(=N)N)C(=O)N[C@@H](Cc1c[nH]c2ccccc12)C(=O)N[C@@H](CN)C(N)=O [Analogue 12]	0.2	P(-)	8.0	P(-)	–	–
CCCC[C@H](NC(C)=O)C(=O)N[C@@H](CC(=O)O)C(=O)N[C@@H](Cc1c[nH]cn1)C(=O)N[C@@H](Cc1ccccc1)C(=O)N[C@@H](CCCNC(=N)N)C(=O)N[C@@H](Cc1c[nH]c2ccccc12)C(=O)N[C@@H](CCCCN)C(N)=O [Analogue 14]	–	–	0.08	P(-)	–	–
CCCC[C@H](NC(=O)[C@H](CO)NC(=O)[C@H](Cc1ccc(O)cc1)NC(=O)[C@H](CO)NC(C)=O)C(=O)N[C@H]1CC(=O)NCCCC[C@@H](C(=O)NCC(=O)N2CCC[C@H]2C(=O)N[C@H](C(N)=O)C(C)C)NC(=O)[C@H](Cc2c[nH]c3ccccc23)NC(=O)[C@H](CCCNC(=N)N)NC(=O)[C@@H](Cc2ccccc2)NC(=O)[C@H](Cc2c[nH]cn2)NC1=O [Analogue 21] (Ac-SYS[Nle]DH[dF]RWKGPV-NH2; lactam 5-10)	–	–	–	–	p(+)	8.0
CCCC[C@H](NC(=O)[C@H](CO)NC(=O)[C@H](Cc1ccc(O)cc1)NC(=O)[C@H](CO)NC(C)=O)C(=O)N[C@H]1CC(=O)NCCCC[C@@H](C(N)=O)NC(=O)[C@H](Cc2c[nH]c3ccccc23)NC(=O)[C@H](CCCNC(=N)N)NC(=O)[C@@H](Cc2ccccc2)NC(=O)[C@H](Cc2c[nH]cn2)NC1=O [Analogue 22] (Ac-SYS[Nle]DH[dF]RWK-NH2; lactam 5-10)	–	–	–	–	p(+)	2.0
CCCC[C@H](NC(=O)[C@H](CO)NC(=O)[C@H](Cc1ccc(O)cc1)NC(C)=O)C(=O)N[C@H]1CC(=O)NCCCC[C@@H](C(N)=O)NC(=O)[C@H](Cc2c[nH]c3ccccc23)NC(=O)[C@H](CCCNC(=N)N)NC(=O)[C@@H](Cc2ccccc2)NC(=O)[C@H](Cc2c[nH]cn2)NC1=O [Analogue 23] (Ac-YS[Nle]DH[dF]RWK-NH2; lactam 4-9)	–	–	–	–	p(+)	0.7
CCCC[C@H](NC(=O)[C@H](CO)NC(C)=O)C(=O)N[C@H]1CC(=O)NCCCC[C@@H](C(N)=O)NC(=O)[C@H](Cc2c[nH]c3ccccc23)NC(=O)[C@H](CCCNC(=N)N)NC(=O)[C@@H](Cc2ccccc2)NC(=O)[C@H](Cc2c[nH]cn2)NC1=O [Analogue 24] (Ac-S[Nle]DH[dF]RWK-NH2; lactam 3-8)	–	–	–	–	p(+)	1.0
CCCC[C@H](NC(C)=O)C(=O)N[C@H]1CC(=O)NCCCC[C@@H](C(=O)NCC(N)=O)NC(=O)[C@H](Cc2c[nH]c3ccccc23)NC(=O)[C@H](CCCNC(=N)N)NC(=O)[C@@H](Cc2ccccc2)NC(=O)[C@H](Cc2c[nH]cn2)NC1=O [Analogue 26] (Ac-[Nle]DH[dF]RWKG-NH2; lactam 2-7)	–	–	–	–	p(+)	5.5
CCCC[C@H](NC(C)=O)C(=O)N[C@H]1CC(=O)NCCCC[C@@H](C(=O)NCC(=O)N2CCC[C@H]2C(N)=O)NC(=O)[C@H](Cc2c[nH]c3ccccc23)NC(=O)[C@H](CCCNC(=N)N)NC(=O)[C@@H](Cc2ccccc2)NC(=O)[C@H](Cc2c[nH]cn2)NC1=O [Analogue 27] (Ac-[Nle]DH[dF]RWKGP-NH2; lactam 2-7)	–	–	–	–	p(+)	4.0
CCCC[C@H](NC(C)=O)C(=O)N[C@H]1CC(=O)NCCCC[C@@H](C(=O)NCC(=O)N2CCC[C@H]2C(=O)N[C@H](C(N)=O)C(C)C)NC(=O)[C@H](Cc2c[nH]c3ccccc23)NC(=O)[C@H](CCCNC(=N)N)NC(=O)[C@@H](Cc2ccccc2)NC(=O)[C@H](Cc2c[nH]cn2)NC1=O [Analogue 28] (Ac-[Nle]DH[dF]RWKGPV-NH2; lactam 2-7)	–	–	–	–	p(+)	2.0
CCCC[C@H](NC(=O)[C@H](CO)NC(C)=O)C(=O)N[C@H]1CC(=O)NCCCC[C@@H](C(=O)NCC(=O)N2CCC[C@H]2C(=O)N[C@H](C(N)=O)C(C)C)NC(=O)[C@H](Cc2c[nH]c3ccccc23)NC(=O)[C@H](CCCNC(=N)N)NC(=O)[C@@H](Cc2ccccc2)NC(=O)[C@H](Cc2c[nH]cn2)NC1=O [Analogue 29] (Ac-S[Nle]DH[dF]RWKGPV-NH2; lactam 3-8)	–	–	–	–	p(+)	9.0
